Laboratory results reported in patent US11141495B2, “MRI imaging of amyloid plaque using liposomes” (Texas Children's Hospital, priority 2014, dated 2021).
Where two headings read alike, the source gives them in different places.

Assays:
Aβ(1-40) fibrils [1] = biological target: T1, Aβ(1-40) fibrils (Homo sapiens, UniProt P05067); assay: Competitive binding assay to fibrils versus Chrysamine G; conditions: for % bound to fibrils in competition with Chrysamine-G: Chrysamine-G concentration of 1 μM, 20 μM fibrils, 1.0 μM test compound
T1 construct: Aβ(1-40) peptide (rPeptide, Bogart, Ga.); purchased rPeptide, Bogart, Ga
Procedure: (§1) Aβ fibrils were synthesized according to the method of Klunk et al. Ann Neurol, 2004; 55: 306-19, the entire teachings of which are incorporated herein by reference. Briefly, Aβ(1-40) peptide (rPeptide, Bogart, Ga.) was dissolved in phospho-buffered saline, pH 7.4 to a final concentration of 433 μg/mL (100 μM). The solution was stirred using a magnetic stir bar at 700 rpm for 4 h at room temperature to drive the formation of fibrils. The stock solution was aliquoted and stored at −80° C. for future use. The stock solutions were stirred thoroughly before removing aliquots for binding assays to maintain a homogenous suspension of fibrils. […]
(§2) Binding assay: The binding affinity of the compounds or compound-labeled liposomes with the amyloid fibrils was measured by following methods. Ligand-labeled liposomes, ligand stock solutions, and Chrysamine G fix competition assays were diluted with […] to 500 nM. Fibril stock solution was mixed with a stock solution of the compound or the compound-labeled liposomes in a 200 μL reaction mix to give a final concentration of fibrils (20 μM) with test compounds varying from 0.0625-20 μM. The binding mixture was incubated at room temperature for 1 h. Subsequently, the incubated binding mixture was centrifuged for 20 min at 16,400 rpm to separate the fibrils. The fibril precipitate was washed twice with Tris-HCl. Fluorescence was then measured in a Filter Max F-5 multi-mode plate reader (Molecular Devices, Sunnyvale, Calif.), using excitation and emission wavelengths of 405 nm and 535 nm, respectively. Competitive binding assays used 20 μM of fibrils, 1.0 μM test compounds and varying amounts of the non-fluorescent competitor, Chrysamine G and incubated for 1 h.

Aβ(1-40) fibrils [2] = biological target: T1, Aβ(1-40) fibrils; assay: Binding assay of compounds or compound-labeled liposomes with amyloid fibrils (fluorescence of washed fibrils); conditions: for binding to fibrils, relative fluorescence unit: at a concentration of 1 μM
Procedure: as §1, §2
FIG. 7B is a graph showing fibril binding data and a calculated fit for estimation of the binding constant far Compound ii to fibrils at Kd=5.0 μM. FIG. 7C is a graph showing fibril binding data and a calculated fit for estimation of the binding constant for Compound iii to fibrils at Kd=5.0 μM. […] Binding to fibrils was quantified by measuring the fluorescence of the respective binding agent to washed fibrils. The data was fitted to a monolayer binding equation; Kd=1/Kb.

[3] = tested on: cerebral amyloid angiopathy; assay: Fluorescent staining of aged dog frontal cortex tissue sections; conditions: 12.3 year old canine, 1 mM, 2 hours
Procedure: (§3) Compound iii solutions in PBS were incubated with frontal cortex tissue obtained from autopsy of an AD patient (the University of Kentucky Institutional Review Board approved the use of human tissue for the study; informed consent was obtained prior to autopsy) and a 12.3 year old canine. Both the human and canine tissues had Alzheimer's amyloid pathology confirmed from previous studies. 50 μm thick free-floating sections were mounted on slides and allowed to dry overnight. Slides were then washed in PBS (3×5 min) and incubated in Compound iii solution (1 mM) for 2 hours and then again washed 3×5 min in PBS, and coverslipped in Vectashield mounting medium with […] (Vector Laboratories, Burlingame, Calif.). Sections were imaged on an Olympus BX-51 microscope with a broadpass filter (Olympus Corporation of the Americas, Center Valley, Pa.).

amyloid plaques = assay: Fluorescent staining of human AD frontal cortex tissue sections; conditions: frontal cortex of an AD autopsy case; 1 mM, 2 hours
Procedure: as §3

T1 sequence (P05067 672-711): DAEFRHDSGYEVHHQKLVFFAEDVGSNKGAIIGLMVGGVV

In the case of `CN(CCO)c1ccc(/C=C/c2ccncn2)cc1` [Compound ii, (E)-2-{methyl[4-(2-(pyrimidin-4-yl)vinyl)phenyl]amino}ethanol], the “% bound to fibrils in competition with Chrysamine-G” value (“% bound to fibrils in competition” below) (Aβ(1-40) fibrils [1]) is reported as “about 45%”, the Kd (Aβ(1-40) fibrils [2]; 20 μM fibrils, read-out: Kd, binding constant to fibrils (calculated fit, monolayer binding equation)) is reported as 5 µM and the “binding to fibrils, relative fluorescence unit” value (Aβ(1-40) fibrils [2]; 20 μM fibrils) is reported as 35 m RFU.
`OCCN(CCO)c1ccc(/C=C/c2ccncn2)cc1` [Compound iii, (E)-2,2′-{[4-(2-(pyrimidin-4-yl)vinyl)phenyl]azanediyl}diethanol] was tested, and the “labeling of cerebral amyloid angiopathy in aged dog brain tissue” value [3] was “labels cerebral amyloid angiopathy”, the “% bound to fibrils in competition” value (Aβ(1-40) fibrils [1]) was “about 55%” and the “staining of amyloid plaques in human brain tissue” value (amyloid plaques) was “specifically stains amyloid plaques”. For the same compound, the Kd (Aβ(1-40) fibrils [2]) was 5 µM and the “binding to fibrils, relative fluorescence unit” value (Aβ(1-40) fibrils [2]; 20 μM fibrils) was 400 k RFU.
In the case of `COc1cc(/C=C/c2ccc(O)cc2)ccc1/C=C/c1ccc(O)cc1` [MeXO4, reference compound], the “bound species displaced by Chrysamine G” value (Aβ(1-40) fibrils [1]) is reported as over 80%, the “% bound to fibrils in competition” value (Aβ(1-40) fibrils [1]) is reported as “about 20%” and the “binding to fibrils, relative fluorescence unit” value (Aβ(1-40) fibrils [2]; 20 μM fibrils) is reported as “less than 100 k RFU”.
